Test results as given in ChEMBL document CHEMBL4393658, “Fluorinated indole-imidazole conjugates: Selective orally bioavailable 5-HT7 receptor low-basicity agonists, potential neuropathic painkillers” (Eur J Med Chem, 2019).

Legend:
[1] = Ratio of drug level in CD-1 mouse brain to plasma by LC-ESI/MS/MS analysis; type: ADME; conditions: brain and plasma
[2] = Brain to plasma distribution coefficient in CD-1 mouse; type: ADME, organism-based; conditions: brain and plasma
[3] = Tmax in CD-1 mouse brain at […], ip by LC-MS/MS analysis; type: ADME, organism-based
[4] = Bioavailability in CD-1 mouse at […], ip by LC-MS/MS analysis; type: ADME, organism-based; conditions: in vivo
[5] = Bioavailability in CD-1 mouse at […], ig by LC-MS/MS analysis; type: ADME, organism-based; conditions: in vivo, po
[6] = Cmax in CD-1 mouse brain at […], ip by LC-MS/MS analysis; type: ADME, organism-based; set-up: dose 2.5 mg/kg, route intraperitoneal
[7] = Volume of distribution in CD-1 mouse at […], ip by LC--MS/MS analysis; type: ADME, organism-based; conditions: in vivo
[8] = Volume of distribution at steady state in CD-1 mouse at […] by LC-MS/MS analysis; type: ADME, organism-based; conditions: in vivo, read-out: Vdss
[9] = Half life in CD-1 mouse at […], iv by LC-MS/MS analysis; type: ADME, organism-based; conditions: in vivo
[10] = system: Mus musculus; experiment: Ratio of half life in CD-1 mouse at […], ip to half life in mouse at […], ig; type: ADME, organism-based; conditions: in vivo
[11] = Half life in CD-1 mouse by LC-MS/MS analysis; type: ADME; conditions: in vivo
[12] = Drug uptake in CD-1 mouse brain at […] , iv by LC/MS/MS analysis; type: ADME, organism-based; conditions: in vivo
[13] = Drug uptake in CD-1 mouse brain at […] , ip by LC/MS/MS analysis; type: ADME, organism-based; conditions: in vivo
[14] = Drug uptake in CD-1 mouse brain at […] , ig by LC/MS/MS analysis; type: ADME, organism-based; conditions: in vivo, po
[15] = Tmax in CD-1 mouse at […], ip by LC-MS/MS analysis; type: ADME, organism-based; conditions: in vivo

Kp [1]: 1.88 to 4.76
Kp [2]: 3.48
Tmax [3]: 0.5 h
bioavailability [4]: 39%
bioavailability [5]: 24%
Cmax [6]: 1070 ng/g
Vd [7]: 33.5 L/kg
Vd [8]: 2.8 L/kg
half-life [9]: 3.17 h
Ratio [10]: 2
half-life [11]: 3.37 h
Drug uptake [12]: Active
Drug uptake [13]: Active
Drug uptake [14]: Active
Tmax [15]: 5 min
Compound: CCn1cncc1-c1c[nH]c2ccc(I)c(F)c12.Cl
